Here are results for 3 compounds from US20250092046A1, “TYROSINE KINASE INHIBITORS” (THE UNIVERSITY COURT OF THE UNIVERSITY OF EDINBURGH, priority 2021, published 2025).

One experiment relates to cancer cell lines. Description: Screening in cancer cell lines (cell viability). It is filed as cell-based. How it is done:
(§1) Cells were grown in Dulbecco's Modified Eagle Medium (DMEM) or Roswell Park Memorial Institute (RPMI) medium supplemented with serum (10% fetal bovine serum) and L-glutamine (2 mM) and incubated in a Heracell 240i tissue culture incubator at 37° C. and 5% Co2.
(§2) After 48 hours, the media was aspirated from each well and replaced with 95 μl of fresh medium. Compounds, including DMSO, were prepared at 20× in DMEM medium in a separate 96-well intermediate plate. 5 μl from the intermediate plate was then added to each well containing cells. Untreated cells were incubated with DMSO (0.1% v/v). After 5 days, PrestoBlue™ cell viability reagent (10 μl) was added to each well and the plates incubated for 60-90 min. Fluorescence emission was detected using a fluorescence plate reader (excitation 540 nm, emission 590 nm). All conditions were normalised to the untreated cells (100%) and dose-response curves were fitted using GraphPad Prism software.

In another experiment the target is EGFR (Homo sapiens, UniProt P00533). Description: Kinase screening assay (mobility shift, LabChip). It is filed as biochemical. To be noted: 0.5 micromolar compound. How it is done:
(§3) A 4× Substrate/ATP/Metal (1 […], 5 mmol/L Mg^2+) solution was prepared with buffer (20 mmol/L HEPES, 0.01% Triton X-100, 5 mmol/L DTT, pH 7.5), and a 2× kinase solution was also prepared with buffer (20 mmol/L HEPES, 0.01% Triton X-100, 1 mmol/L DTT, pH 7.5). 5 μL of 4× compound solution, 5 μL of 4× Substrate/ATP/Metal solution, and 10 μL of 2× kinase solution were mixed and incubated in a well of polypropylene 384 well microplate for 1 hour at room temperature. 70 μL of Termination Buffer (QuickScout Screening Assist MSA) was added to the well. The reaction mixture was applied to LabChip™ system, and the product and substrate peptide peaks were separated and quantitated.

Another experiment has as its target RET (Homo sapiens, UniProt P07949). The experiment in a line: Kinase screening assay (mobility shift, LabChip). It is filed as biochemical. To be noted: 0.5 micromolar compound. How it is done: as §3
In a further experiment the target is KIT (Homo sapiens, UniProt P10721). Description: Kinase screening assay (mobility shift, LabChip). It is filed as biochemical. To be noted: 0.5 micromolar compound. As to the method: as §3
A further experiment deals with LCK (Homo sapiens, UniProt P06239). The experiment in a line: Kinase screening assay (mobility shift, LabChip). The experiment is classed as biochemical. To be noted: 0.5 micromolar compound. How it is done: as §3
Sequence of LCK (P06239 whole entry): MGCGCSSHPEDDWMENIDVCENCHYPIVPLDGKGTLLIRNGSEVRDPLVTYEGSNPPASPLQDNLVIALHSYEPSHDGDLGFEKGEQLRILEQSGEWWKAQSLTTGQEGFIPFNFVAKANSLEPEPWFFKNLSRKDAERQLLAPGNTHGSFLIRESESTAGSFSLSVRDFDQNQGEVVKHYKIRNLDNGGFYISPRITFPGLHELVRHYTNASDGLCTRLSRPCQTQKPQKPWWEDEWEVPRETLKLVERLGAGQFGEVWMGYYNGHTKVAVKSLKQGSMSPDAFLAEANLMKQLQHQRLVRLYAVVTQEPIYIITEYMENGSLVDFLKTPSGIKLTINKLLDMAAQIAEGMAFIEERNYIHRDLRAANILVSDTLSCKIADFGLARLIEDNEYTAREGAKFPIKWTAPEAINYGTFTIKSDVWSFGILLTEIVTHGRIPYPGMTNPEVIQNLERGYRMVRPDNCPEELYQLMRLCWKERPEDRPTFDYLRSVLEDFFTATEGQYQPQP
The target in the next experiment is KDR (Homo sapiens, UniProt P35968). Description: Kinase screening assay (mobility shift, LabChip). It is filed as biochemical. To be noted: 0.5 micromolar compound. How it is done:
as §3

For a further experiment, the target named is HCK (Homo sapiens, UniProt P08631). Description: Kinase screening assay (mobility shift, LabChip). It is filed as biochemical. To be noted: 0.5 micromolar compound. How it is done: as §3
Sequence of HCK (P08631 whole entry): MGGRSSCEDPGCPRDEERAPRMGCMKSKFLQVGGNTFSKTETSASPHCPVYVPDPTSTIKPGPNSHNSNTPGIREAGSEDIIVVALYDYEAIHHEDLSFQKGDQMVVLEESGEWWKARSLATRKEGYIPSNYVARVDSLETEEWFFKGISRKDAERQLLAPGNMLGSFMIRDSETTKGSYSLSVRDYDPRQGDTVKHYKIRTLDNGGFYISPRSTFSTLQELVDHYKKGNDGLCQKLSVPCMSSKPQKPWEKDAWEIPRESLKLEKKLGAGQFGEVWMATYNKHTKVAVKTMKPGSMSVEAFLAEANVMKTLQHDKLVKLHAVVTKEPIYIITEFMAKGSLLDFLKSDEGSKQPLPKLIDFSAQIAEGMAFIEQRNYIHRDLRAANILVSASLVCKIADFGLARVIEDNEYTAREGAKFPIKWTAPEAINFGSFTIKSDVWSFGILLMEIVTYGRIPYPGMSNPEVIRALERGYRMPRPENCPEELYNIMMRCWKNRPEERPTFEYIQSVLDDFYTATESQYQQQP
The next experiment concerns the target YES (Homo sapiens, UniProt P07947). The experiment in a line: Kinase screening assay (mobility shift, LabChip). To be noted: 0.5 micromolar compound. The experiment is classed as biochemical. How it is done: as §3
In a further experiment the target is SRC (Homo sapiens, UniProt P12931). The experiment in a line: Kinase screening assay (mobility shift, LabChip). The experiment is classed as biochemical. To be noted: 0.5 micromolar compound. As to the method:
as §3

In the next experiment the target is PDGFR alpha (Homo sapiens, UniProt P16234). The experiment in a line: Kinase screening assay (mobility shift, LabChip). To be noted: 0.5 micromolar compound. It is filed as biochemical. As to the method:
as §3

Another experiment deals with ABL (Homo sapiens, UniProt P00519). The experiment in a line: Kinase screening assay (mobility shift, LabChip). It is filed as biochemical. To be noted: 0.5 micromolar compound. As to the method:
as §3

The next experiment concerns the target FGR (Homo sapiens, UniProt P09769). Description: Kinase screening assay (mobility shift, LabChip). The experiment is classed as biochemical. To be noted: 0.5 micromolar compound. How it is done:
as §3

Another experiment concerns the target Her4 (Homo sapiens, UniProt Q15303). Description: Kinase screening assay (mobility shift, LabChip). It is filed as biochemical. To be noted: 0.5 micromolar compound. As to the method:
as §3

In the next experiment the target is LYNa (Homo sapiens, UniProt P07948). The experiment in a line: Kinase screening assay (mobility shift, LabChip). It is filed as biochemical. To be noted: 0.5 micromolar compound. As to the method:
as §3

A further experiment addresses FYNa (Homo sapiens, UniProt P06241). The experiment in a line: Kinase screening assay (mobility shift, LabChip). The experiment is classed as biochemical. To be noted: 0.5 micromolar compound. As to the method:
as §3

The next experiment addresses BRK (Homo sapiens, UniProt Q13882). Description: Kinase screening assay (mobility shift, LabChip). The experiment is classed as biochemical. To be noted: 0.5 micromolar compound. How it is done: as §3
For experiment [1], the system named is MDA-MB-231 breast cancer cells. The experiment in a line: Cell viability assay (PrestoBlue). It is filed as cell-based. To be noted: Homo sapiens, 120 h, 5 days treatment. How it is done:
as §1, §2

Experiment [2] relates to SRC and its family members. Description: Kinase screening assay, selectivity across the panel. It is filed as biochemical. To be noted: kinase panel of Table 1, 0.5 micromolar. As to the method:
as §3

Sequence of YES (P07947 whole entry): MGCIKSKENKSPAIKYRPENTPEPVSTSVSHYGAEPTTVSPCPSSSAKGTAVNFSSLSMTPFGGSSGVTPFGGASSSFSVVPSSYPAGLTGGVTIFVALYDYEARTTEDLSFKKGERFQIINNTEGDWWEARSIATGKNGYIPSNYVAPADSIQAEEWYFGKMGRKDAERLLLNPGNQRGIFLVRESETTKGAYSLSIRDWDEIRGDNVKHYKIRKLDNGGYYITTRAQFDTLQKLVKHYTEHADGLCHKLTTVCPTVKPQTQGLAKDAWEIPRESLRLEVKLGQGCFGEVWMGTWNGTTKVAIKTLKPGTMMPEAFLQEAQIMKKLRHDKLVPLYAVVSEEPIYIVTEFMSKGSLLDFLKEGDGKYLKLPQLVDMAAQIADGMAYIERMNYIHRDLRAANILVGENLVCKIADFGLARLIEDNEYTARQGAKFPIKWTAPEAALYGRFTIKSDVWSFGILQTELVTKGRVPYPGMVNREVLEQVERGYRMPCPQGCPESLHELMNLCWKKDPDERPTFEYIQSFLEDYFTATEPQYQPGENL
Sequence of RET (P07949 29-1114): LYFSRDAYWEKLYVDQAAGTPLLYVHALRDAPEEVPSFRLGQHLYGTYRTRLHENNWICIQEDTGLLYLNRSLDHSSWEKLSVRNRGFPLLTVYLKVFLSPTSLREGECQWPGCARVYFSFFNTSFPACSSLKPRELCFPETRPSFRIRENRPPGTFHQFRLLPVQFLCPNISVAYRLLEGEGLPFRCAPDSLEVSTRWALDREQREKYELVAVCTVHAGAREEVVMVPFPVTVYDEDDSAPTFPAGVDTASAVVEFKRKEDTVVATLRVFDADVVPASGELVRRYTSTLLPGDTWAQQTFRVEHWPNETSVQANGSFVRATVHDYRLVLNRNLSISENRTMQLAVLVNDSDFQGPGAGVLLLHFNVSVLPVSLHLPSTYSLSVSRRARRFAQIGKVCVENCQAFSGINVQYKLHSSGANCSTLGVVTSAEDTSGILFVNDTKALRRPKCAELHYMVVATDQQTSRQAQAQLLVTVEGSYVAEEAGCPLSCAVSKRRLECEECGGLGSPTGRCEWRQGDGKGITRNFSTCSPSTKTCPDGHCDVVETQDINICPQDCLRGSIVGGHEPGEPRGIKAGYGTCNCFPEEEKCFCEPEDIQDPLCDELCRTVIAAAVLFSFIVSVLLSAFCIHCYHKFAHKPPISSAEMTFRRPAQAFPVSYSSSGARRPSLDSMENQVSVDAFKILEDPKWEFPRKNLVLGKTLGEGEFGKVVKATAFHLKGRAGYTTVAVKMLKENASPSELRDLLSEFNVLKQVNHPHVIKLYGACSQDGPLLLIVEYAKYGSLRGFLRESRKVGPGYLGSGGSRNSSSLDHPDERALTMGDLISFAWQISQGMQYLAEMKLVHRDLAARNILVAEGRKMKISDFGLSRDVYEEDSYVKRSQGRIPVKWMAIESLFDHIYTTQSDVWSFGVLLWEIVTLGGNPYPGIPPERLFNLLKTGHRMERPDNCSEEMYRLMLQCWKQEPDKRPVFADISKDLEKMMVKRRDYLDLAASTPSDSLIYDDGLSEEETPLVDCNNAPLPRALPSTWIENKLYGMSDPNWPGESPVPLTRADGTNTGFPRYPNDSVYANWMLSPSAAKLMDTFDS
Sequence of SRC (P12931 whole entry): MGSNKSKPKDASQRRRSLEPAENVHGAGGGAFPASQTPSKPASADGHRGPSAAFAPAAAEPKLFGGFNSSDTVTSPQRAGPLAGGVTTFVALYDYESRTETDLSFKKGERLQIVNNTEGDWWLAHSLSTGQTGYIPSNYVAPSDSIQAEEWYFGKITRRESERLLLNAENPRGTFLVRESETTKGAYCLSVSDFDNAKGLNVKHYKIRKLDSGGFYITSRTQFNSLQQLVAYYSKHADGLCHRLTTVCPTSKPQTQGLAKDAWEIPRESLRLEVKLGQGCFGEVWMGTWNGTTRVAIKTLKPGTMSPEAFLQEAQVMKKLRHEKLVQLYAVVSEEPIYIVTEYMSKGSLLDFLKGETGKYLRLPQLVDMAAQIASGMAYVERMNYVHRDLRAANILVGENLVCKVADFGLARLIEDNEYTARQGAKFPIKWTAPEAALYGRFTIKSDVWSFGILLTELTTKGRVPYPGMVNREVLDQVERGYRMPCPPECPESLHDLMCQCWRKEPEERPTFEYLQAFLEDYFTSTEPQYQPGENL
Sequence of Her4 (Q15303 26-1308): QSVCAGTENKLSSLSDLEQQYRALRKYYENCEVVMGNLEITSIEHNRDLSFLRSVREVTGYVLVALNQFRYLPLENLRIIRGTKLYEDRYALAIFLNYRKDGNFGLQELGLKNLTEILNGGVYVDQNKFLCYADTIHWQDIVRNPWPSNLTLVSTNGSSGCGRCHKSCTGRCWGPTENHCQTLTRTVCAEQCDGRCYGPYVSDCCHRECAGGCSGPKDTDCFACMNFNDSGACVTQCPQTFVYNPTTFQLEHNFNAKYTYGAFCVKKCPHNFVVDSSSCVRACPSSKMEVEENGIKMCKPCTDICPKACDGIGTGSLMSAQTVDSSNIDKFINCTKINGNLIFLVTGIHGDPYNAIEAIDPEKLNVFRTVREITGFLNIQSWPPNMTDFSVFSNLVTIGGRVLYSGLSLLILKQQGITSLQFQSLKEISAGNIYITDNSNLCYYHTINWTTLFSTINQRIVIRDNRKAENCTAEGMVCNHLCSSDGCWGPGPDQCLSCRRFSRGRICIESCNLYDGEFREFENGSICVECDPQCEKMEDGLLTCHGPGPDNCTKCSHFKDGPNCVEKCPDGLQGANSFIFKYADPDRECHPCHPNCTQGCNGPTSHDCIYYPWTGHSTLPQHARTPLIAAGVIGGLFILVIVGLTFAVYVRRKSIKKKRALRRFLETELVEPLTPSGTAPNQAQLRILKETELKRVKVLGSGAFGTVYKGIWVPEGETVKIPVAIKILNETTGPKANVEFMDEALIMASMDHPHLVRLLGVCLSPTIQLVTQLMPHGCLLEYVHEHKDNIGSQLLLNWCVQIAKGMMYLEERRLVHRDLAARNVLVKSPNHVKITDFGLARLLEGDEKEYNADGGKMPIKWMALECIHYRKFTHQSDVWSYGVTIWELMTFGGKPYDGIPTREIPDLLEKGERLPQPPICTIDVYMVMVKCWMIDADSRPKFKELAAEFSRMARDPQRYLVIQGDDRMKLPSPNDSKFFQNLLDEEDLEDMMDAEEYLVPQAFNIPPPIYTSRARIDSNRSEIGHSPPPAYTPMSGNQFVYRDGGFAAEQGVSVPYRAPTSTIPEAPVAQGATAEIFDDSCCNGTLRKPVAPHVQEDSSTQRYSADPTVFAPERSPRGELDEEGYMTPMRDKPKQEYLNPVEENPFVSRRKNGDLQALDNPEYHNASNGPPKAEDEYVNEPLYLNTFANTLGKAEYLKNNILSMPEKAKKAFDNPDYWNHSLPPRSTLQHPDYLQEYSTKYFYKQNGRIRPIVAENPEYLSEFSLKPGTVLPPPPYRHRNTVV
Sequence of LYNa (P07948 whole entry): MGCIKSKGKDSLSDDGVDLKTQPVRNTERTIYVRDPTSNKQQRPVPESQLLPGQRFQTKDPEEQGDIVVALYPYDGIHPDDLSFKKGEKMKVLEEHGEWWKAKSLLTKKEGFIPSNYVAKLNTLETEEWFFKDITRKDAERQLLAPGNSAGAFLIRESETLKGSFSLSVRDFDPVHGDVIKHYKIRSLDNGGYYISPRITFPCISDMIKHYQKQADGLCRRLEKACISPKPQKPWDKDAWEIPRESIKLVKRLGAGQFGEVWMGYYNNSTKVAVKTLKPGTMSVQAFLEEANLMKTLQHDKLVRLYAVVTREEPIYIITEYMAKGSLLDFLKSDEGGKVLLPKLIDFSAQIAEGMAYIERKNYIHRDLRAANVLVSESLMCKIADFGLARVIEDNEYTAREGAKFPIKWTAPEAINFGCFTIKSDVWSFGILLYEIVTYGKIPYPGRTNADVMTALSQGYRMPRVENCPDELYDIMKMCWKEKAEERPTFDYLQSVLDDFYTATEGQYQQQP

Take `CNC1CCN(CCn2nc(-c3ccc(NC(=O)OC(C)(C)C)c(OC)c3)c3c(N)ncnc32)CC1` [Compound 5a, tert-butyl (4-(4-amino-1-(2-(4-(methylamino)piperidin-1-yl)ethyl)-1H-pyrazolo[3,4-d]pyrimidin-3-yl)-2-methoxyphenyl)carbamate]: in the experiment with cancer cell lines, the “potency and selectivity in cancer cell lines compared with parent compound 506” value is “retains the potency and selectivity characteristics of the parent compound 506”. For the same compound, the inhibition at 0.5 µM was 46.3% on EGFR; -0.3% at RET; 2.8% at KIT; 107% on LCK; 1.7% on KDR; 105% at HCK. The inhibition at 0.5 µM was determined as 99.7% on YES; 102% at SRC; 13.6% on PDGFR alpha; 29.2% at ABL; 101% at FGR; 97.6% on Her4. Also, the inhibition at 0.5 µM on LYNa turned out to be 102%; at FYNa it was 99.4%; on BRK it was 98.5%. Also, the GI50 in experiment [1] was 16.2 nM. For the same compound, the “selectivity for SRC and its family members over other kinases” value in experiment [2] is recorded as “more selective than compound 506”.
Turning to `COc1cc(-c2nn(CCN3CCC(NC(C)C)CC3)c3ncnc(N)c23)ccc1NC(=O)OC(C)(C)C` [Compound 8, tert-butyl (4-(4-amino-1-(2-(4-(isopropylamino)piperidin-1-yl)ethyl)-1H-pyrazolo[3,4-d]pyrimidin-3-yl)-2-methoxyphenyl)carbamate], the inhibition at 0.5 µM was 58.2% at EGFR; -2.3% at RET; 2.7% on KIT; 101% on LCK; -7.3% on KDR; 98.7% at HCK. Moreover, the inhibition at 0.5 µM on YES turned out to be 102%; on SRC, 97.3%; at PDGFR alpha it was 12.2%; at ABL, 24.2%; on FGR, 100%; on Her4 it was 94.9%. The inhibition at 0.5 µM on LYNa was determined as 101%; on FYNa it was 100%; on BRK, 99.5%. In addition, the 50% growth inhibitory concentration (GI50) in experiment [1] amounted to 12.5 nM. Besides, in experiment [2], the “selectivity for SRC and its family members over other kinases” value is on record as “more selective than compound 506”.
In the case of `COc1cc(-c2nn(CCN3CCC(N(C)C)CC3)c3ncnc(N)c23)ccc1NC(=O)OC(C)(C)C` [Compound 506, Tert-butyl (4-(4-amino-1-(2-(4-(dimethylamino)piperidin-1-yl)ethyl)-1H-pyrazolo[3,4-d]pyrimidin-3-yl)-2-methoxyphenyl)carbamate, reference compound], the inhibition at 0.5 µM on EGFR was found to be 46.1%; on RET it was 3.8%; at KIT it was 4.4%; on LCK, 104%; at KDR, 2.9%; on HCK, 101%. For the same compound, the inhibition at 0.5 µM was 99.7% on YES; 101% at SRC; 13.5% at PDGFR alpha; 100% on FGR; 96.7% at Her4; 101% at LYNa. In addition, at FYNa, the inhibition at 0.5 µM was 100%.

One may read the inhibition as the relative decrease from the control value, in per cent. The term GI50 denotes the concentration giving 50% growth inhibition. A higher GI50 goes with less potent growth inhibition.
